Where a name gives a salt, the structure may show the parent alone.
Each compound was assayed on MOLM-13 cells (assay: EPZ-5676 300 nM 7-day pre-treatment, then second compound 72 hours, ATPLite, IC50 shift (Example 6)). Conditions: 300 nM EPZ-5676 or DMSO 7-day pre-treatment, then 2nd compound 72 hours, Synergy = IC50 of 2nd compound decreased by 2-fold or more vs DMSO control.
Type: cell-based, human
Description: Cells were then equilibrated in incubators for 24 hours before treatment with a second compound. Treated assay plates were incubated with a second compound for 72 hours. After this time, plates were developed for endpoint analysis using ATPLite to measure ATP content, which is used as an indicator of cell viability.
“N/D” means that IC50 of the second compound could not be determined for both conditions.

Question: For `N.N.[Cl][Pt][Cl]` [Cisplatin], which “MOLM-13 (summary of combination study: EPZ-5676 + 2nd compound)” value is on record?
Answer: Synergy (considered synergistic if the IC50 value of the second compound decreased by 2-fold or more when EPZ-5676 was added as compared to the DMSO control)

Question: How did the “MOLM-13 (summary of combination study: EPZ-5676 + 2nd compound)” value turn out when `Nc1cccc2c1C(=O)N(C1CCC(=O)NC1=O)C2=O` (centres unmarked) [Pomalidomide] was run?
Answer: Synergy (considered synergistic if the IC50 value of the second compound decreased by 2-fold or more when EPZ-5676 was added as compared to the DMSO control)

Question: With `Cc1coc2c1C(=O)C(=O)c1c-2ccc2c1CCCC2(C)C` [TANSHINONE IIA] as the compound, how does the “MOLM-13 (summary of combination study: EPZ-5676 + 2nd compound)” value read?
Answer: Synergy (considered synergistic if the IC50 value of the second compound decreased by 2-fold or more when EPZ-5676 was added as compared to the DMSO control)

Question: `Cc1cnc(NC(=O)Nc2cc(Br)c(C)cc2OC[C@@H]2CNCCO2)cn1` [LY2603618] was tested. Which “MOLM-13 (summary of combination study: EPZ-5676 + 2nd compound)” value did it give?
Answer: Synergy (considered synergistic if the IC50 value of the second compound decreased by 2-fold or more when EPZ-5676 was added as compared to the DMSO control)

Question: For `COc1ccc(C2=N[C@@H](c3ccc(Cl)cc3)[C@@H](c3ccc(Cl)cc3)N2C(=O)N2CCNC(=O)C2)c(OC(C)C)c1` [Nutlin-3], which “MOLM-13 (summary of combination study: EPZ-5676 + 2nd compound)” value is on record?
Answer: Synergy (considered synergistic if the IC50 value of the second compound decreased by 2-fold or more when EPZ-5676 was added as compared to the DMSO control)

Question: For `CO[C@H]1C[C@@H]2CC[C@@H](C)[C@@](O)(O2)C(=O)C(=O)N2CCCC[C@H]2C(=O)O[C@H]([C@H](C)C[C@@H]2CC[C@@H](OC(=O)C(C)(CO)CO)[C@H](OC)C2)CC(=O)[C@H](C)/C=C(\C)[C@@H](O)[C@@H](OC)C(=O)[C@H](C)C[C@H](C)/C=C/C=C/C=C/1C` [Temsirolimus], which “MOLM-13 (summary of combination study: EPZ-5676 + 2nd compound)” value is on record?
Answer: Synergy (considered synergistic if the IC50 value of the second compound decreased by 2-fold or more when EPZ-5676 was added as compared to the DMSO control)

Question: Which “MOLM-13 (summary of combination study: EPZ-5676 + 2nd compound)” value does the source give for `CC1=CC(=O)c2ccccc2C1=O` [Menadione] here?
Answer: Synergy (considered synergistic if the IC50 value of the second compound decreased by 2-fold or more when EPZ-5676 was added as compared to the DMSO control)

Question: Which “MOLM-13 (summary of combination study: EPZ-5676 + 2nd compound)” value does the source give for `CO[C@H]1C[C@@H]2CC[C@@H](C)[C@@](O)(O2)C(=O)C(=O)N2CCCC[C@H]2C(=O)O[C@H]([C@H](C)C[C@@H]2CC[C@@H](OCCO)[C@H](OC)C2)CC(=O)[C@H](C)/C=C(\C)[C@@H](O)[C@@H](OC)C(=O)[C@H](C)C[C@H](C)/C=C/C=C/C=C/1C` [Everolimus] here?
Answer: Synergy (considered synergistic if the IC50 value of the second compound decreased by 2-fold or more when EPZ-5676 was added as compared to the DMSO control)

Question: With `CC[C@@]1(O)C(=O)OCc2c1cc1n(c2=O)Cc2cc3c(CN(C)C)c(O)ccc3nc2-1` [Topotecan Hydrochloride] as the compound, how does the “MOLM-13 (summary of combination study: EPZ-5676 + 2nd compound)” value read?
Answer: Synergy (considered synergistic if the IC50 value of the second compound decreased by 2-fold or more when EPZ-5676 was added as compared to the DMSO control)

Question: How did the “MOLM-13 (summary of combination study: EPZ-5676 + 2nd compound)” value turn out when `Cc1ccc2nc(NCCN)c3ncc(C)n3c2c1` [BMS 345541] was run?
Answer: Synergy (considered synergistic if the IC50 value of the second compound decreased by 2-fold or more when EPZ-5676 was added as compared to the DMSO control)

Question: For `CCc1c2c(nc3ccc(OC(=O)N4CCC(N5CCCCC5)CC4)cc13)-c1cc3c(c(=O)n1C2)COC(=O)[C@]3(O)CC` [Irinotecan Hydrochloride], which “MOLM-13 (summary of combination study: EPZ-5676 + 2nd compound)” value is on record?
Answer: Synergy (considered synergistic if the IC50 value of the second compound decreased by 2-fold or more when EPZ-5676 was added as compared to the DMSO control)

Source: patent publication US20200030355A1, “COMBINATION THERAPY FOR TREATING CANCER” (Epizyme, Inc., priority 2014, published 2020)
